Results published in patent publication US20260174721A1, “AGENT FOR RESTORING METAL HOMEOSTASIS” (Oxford Antibiotic Group GmbH, priority 2022, published 2026).

Assays:
[1] = tested on: transgenic C. elegans strain CL2659; assay: β-amyloid test system: delay of paralysis in transgenic C. elegans strain CL2659 (Alzheimer testing); type: in vivo, Caenorhabditis elegans; settings: CL2659 stage L3 larvae, 48 hours, tested at 1 mg/ml, 100 μg/ml, 10 μg/ml, — = no effect even at 1 mg/ml; for minimal effective concentration: Caenorhabditis elegans, read-out: Alzheimer: concentration range in which a delay in paralysis was observed
Protocol: For this purpose, stage L3 worm larvae were used at a density of 10-20 worms per well. The expression of β-amyloid in the muscle cells was induced by increasing the temperature, and the associated paralysis was recorded at regular intervals until the end of the test after 48 hours.
(§1) For this purpose, the above substances were tested at concentrations of 1 mg/ml, 100 μg/ml, and 10 μg/ml in comparison with quercetin as a […] control.

[2] = tested on: transgenic C. elegans strain NL5901; assay: α-synuclein test system: reduction of α-synuclein-GFP expression in transgenic C. elegans strain NL5901 (Parkinson testing); type: in vivo, Caenorhabditis elegans; settings: NL5901, GFP readout 24 to 48 hours, tested at 1 mg/ml, 100 μg/ml, 10 μg/ml, — = no effect even at 1 mg/ml; for minimal effective concentration: Caenorhabditis elegans, read-out: Parkinson: concentration range in which a reduction in α-synuclein expression was detectable
Protocol: (§2) The same substances as above were tested in a 96-well procedure in the initially mentioned screening assay using the nematode Caenorhabditis elegans (Pretsch et al., see above) in a standardized α-synuclein test system using the transgenic C. elegans strain NL5901 for their potential suitability as an agent for treating Parkinson's disease. This worm strain expresses human α-synuclein bound to green fluorescent protein (GFP) in all muscle cells. GFP labeling allows a direct detection of expressed protein levels using a multiplate reader for 24 to 48 hours.
(§3) For this purpose, the substances were again tested at concentrations of 1 mg/ml, 100 μg/ml, and 10 μg/ml, but this time in comparison to the initially mentioned Parkinson therapeutic agent levodopa as a control.

Caenorhabditis elegans = assay: C. elegans nematode assay, overall rating over the Alzheimer and Parkinson tests; type: in vivo; settings: for minimal effective concentration: Caenorhabditis elegans, read-out: Score
Protocol: The substances (1) to (41) and (101) to (108), prepared in the above synthesis examples or purchased, were tested for their potential suitability as an agent for treating Alzheimer's disease in a 96-well procedure in the initially mentioned screening assay using the nematode Caenorhabditis elegans (Pretsch et al., see above) in a standardized β-amyloid test system using the transgenic C. elegans strain CL2659. For this purpose, stage L3 worm larvae were used at a density of 10-20 worms per well. The expression of β-amyloid in the muscle cells was induced by increasing the temperature, and the associated paralysis was recorded at regular intervals until the end of the test after 48 hours.
as §1, §2, §3

mouse test model = settings: Parkinson's disease; cited from earlier work
metallothioneins = settings: C. elegans nematode assay; cited from earlier work
[3] = rating from the effective concentration in both tests

Compound | minimal effective concentration [1] | minimal effective concentration [2] | minimal effective concentration (Caenorhabditis elegans; [3]) | other results
O=C(CC(=O)N1CCNCC1)NC12CC3CC(CC(C3)C1)C2 [(20), N-adamantan-1-yl-N′-piperazine malonic acid diamide] | > 10 µg/mL | > 10 µg/mL | 10 to 100 µg/mL | –
NCCCC(=O)N1CCN(C(=O)CC(=O)NC23CC4CC(CC(C4)C2)C3)CC1 [(21), N-adamantan-1-yl-N′-(4-(4-aminobutyryl)piperazine)malonic acid diamide] | > 10 µg/mL | > 10 µg/mL | 10 to 100 µg/mL | –
NCCCNC(=O)CC(=O)N1CCCC2CCCCC21 (centres unmarked) [(24), N-(3-aminopropyl)-N′-decahydroquinoline malonic acid diamide] | > 10 µg/mL | > 10 µg/mL | 10 to 100 µg/mL | –
NCCCNC(=O)CC(=O)N1CCC2CCCCC2C1 (centres unmarked) [(25), N-(3-aminopropyl)-N′-decahydroisoquinoline malonic acid diamide] | > 10 µg/mL | > 10 µg/mL | 10 to 100 µg/mL | –
CC1(C)C2CCC(CNC(=O)CC(=O)NCCCN)C1C2 (centres unmarked) [(26), N-(3-aminopropyl)-N′-(6,6-dimethylbicyclo[3.1.1]heptane-2-ylmethyl)malonic acid diamide] | > 10 µg/mL | > 10 µg/mL | 10 to 100 µg/mL | –
CN(C)CCCNC(=O)CC(=O)OC12CC3CC(CC(C3)C1)C2 [(27), malonic acid adamantan-1-yl ester N-(3-dimethylaminopropyl)amide] | > 10 µg/mL | > 10 µg/mL | 10 to 100 µg/mL | –
O=C(CC(=O)OC12CC3CC(CC(C3)C1)C2)NCCCN1CCOCC1 [(28), malonic acid adamantan-1-yl ester N-(3-morpholinopropyl)amide] | > 10 µg/mL | > 10 µg/mL | 10 to 100 µg/mL | –
CC12CC3CC(C)(C1)CC(NC(=O)CC(=O)O)(C3)C2 [(32), malonic acid N-(3,5-dimethyl)adamantan-1-yl amide] | > 10 µg/mL | > 10 µg/mL | 10 to 100 µg/mL | –
CC12CC3CC(C)(C1)CC(NC(=O)CC(=O)NCCCN)(C3)C2 [(33), N-(3,5-dimethyladamantan-1-yl)-N′-(3-aminopropyl)malonic acid diamide] | > 10 µg/mL | > 10 µg/mL | 10 to 100 µg/mL | –
CC12CC3CC(C)(C1)CC(NC(=O)CC(=O)NCCCN1CCOCC1)(C3)C2 [(34), N-(3,5-dimethyladamantan-1-yl)-N′-(3-morpholinopropyl)malonic acid diamide] | > 10 µg/mL | > 10 µg/mL | 10 to 100 µg/mL | –
COc1ccccc1N1CCN(C(=O)CC(=O)NC23CC4CC(C)(CC(C)(C4)C2)C3)CC1 [(38), N-(3,5-dimethyladamantan-1-yl)-N′-4-(2-methoxyphenyl)piperazine malonic acid diamide] | – | – | – | Alzheimer: concentration range in which a delay in paralysis was observed [1]: >100 µg/mL; Parkinson: concentration range in which a reduction in α-synuclein expression was detectable [2]: >100 µg/mL; Score (Caenorhabditis elegans; [3]): ++ (a compound that is already effective at a concentration >10 μg/ml and therefore rated “++”)
CC12CC3CC(C)(C1)CC(NC(=O)CC(=O)N1CCN(CC(=O)N4CCOCC4)CC1)(C3)C2 [(41), N-(3,5-dimethyladamantan-1-yl)-N′-4-(2-morpholino-2-oxoethyl)piperazine malonic acid diamide] | > 10 µg/mL | > 10 µg/mL | 10 to 100 µg/mL | concentration from which the compound was effective (Caenorhabditis elegans; both tests): > 10 µg/mL
CC(C)(S)[C@@H](N)C(=O)O [D-penicillamine, 2-amino-3-mercapto-3-methyl butanoic acid] | – | – | – | neuroprotective effect / neurotoxicity (mouse test model): did not show any neuroprotective effect
Oc1c(I)cc(Cl)c2cccnc12 [clioquinol, 5-chloro-7-iodoquinolin-8-ol] | – | – | – | body's own biosynthesis of metallothioneins (metallothioneins): prolongation of the body's own biosynthesis of metallothioneins
CCN(CC)C(=S)S [diethyl dithiocarbamate, diethyldithiocarbamate] | – | – | – | neuroprotective effect / neurotoxicity (mouse test model): higher neurotoxicity
Cc1cc(O)c2c(c1)C(=O)c1cc(O)cc(O)c1C2=O [emodin, 1,3,8-trihydroxy-6-methylanthracene-9,10-dione] | – | – | – | body's own biosynthesis of metallothioneins (metallothioneins): prolongation of the body's own biosynthesis of metallothioneins
